From PubChem BioAssay AID1259407 (Chemical Carcinogenesis Research Information System (CCRIS), 2018)
Activity calls are given as the source filed them. The rule behind the calls is not given here.

System: CCRIS mutagenicity, Ames/micronucleus/aberration tests
Assay: CCRIS mutagenicity studies
[1] = Test System: AMES SALMONELLA TYPHIMURIUM, Strain/Indicator: TA97, Metabolic Activation: NONE, Method: PREINCUBATION
[2] = Test System: AMES SALMONELLA TYPHIMURIUM, Strain/Indicator: TA98, Metabolic Activation: HAMSTER, LIVER, S-9, AROCLOR 1254 (10 OR 30%), Method: PREINCUBATION
[3] = Test System: AMES SALMONELLA TYPHIMURIUM, Strain/Indicator: TA98, Metabolic Activation: RAT, LIVER, S-9, AROCLOR 1254 (10 OR 30%), Method: PREINCUBATION
[4] = Test System: AMES SALMONELLA TYPHIMURIUM, Strain/Indicator: TA100, Metabolic Activation: HAMSTER, LIVER, S-9, AROCLOR 1254 (10 OR 30%), Method: PREINCUBATION
[5] = Test System: AMES SALMONELLA TYPHIMURIUM, Strain/Indicator: TA100, Metabolic Activation: NONE, Method: PREINCUBATION
[6] = Test System: AMES SALMONELLA TYPHIMURIUM, Strain/Indicator: TA100, Metabolic Activation: RAT, LIVER, S-9, AROCLOR 1254 (10 OR 30%), Method: PREINCUBATION
[7] = Test System: AMES SALMONELLA TYPHIMURIUM, Strain/Indicator: TA1535, Metabolic Activation: HAMSTER, LIVER, S-9, AROCLOR 1254 (10 OR 30%), Method: PREINCUBATION
[8] = Test System: AMES SALMONELLA TYPHIMURIUM, Strain/Indicator: TA1535, Metabolic Activation: NONE, Method: PREINCUBATION
[9] = Test System: AMES SALMONELLA TYPHIMURIUM, Strain/Indicator: TA1535, Metabolic Activation: RAT, LIVER, S-9, AROCLOR 1254 (10 OR 30%), Method: PREINCUBATION

## C1N2CN3CN1CN(C2)C3
End Point: In vitro chromosomal aberrations, Test System: Chinese hamster lung (CHL/IU) cells, Metabolic Activation: Rat, Liver, S9, Phenobarbital and 5,6-benzoflavone
  mutagenic call: inactive; negative
Test System: AMES SALMONELLA TYPHIMURIUM, Strain/Indicator: TA97, Metabolic Activation: HAMSTER, LIVER, S-9, AROCLOR 1254 (5 OR 30%), Method: PREINCUBATION
  mutagenic call: inactive; negative
Test System: AMES SALMONELLA TYPHIMURIUM, Strain/Indicator: TA97, Metabolic Activation: HAMSTER, LIVER, S-9, AROCLOR 1254 (10%), Method: PREINCUBATION
  mutagenic call: inactive; negative
[1]
  mutagenic call: inactive; negative
Test System: AMES SALMONELLA TYPHIMURIUM, Strain/Indicator: TA97, Metabolic Activation: RAT, LIVER, S-9, AROCLOR 1254 (10%), Method: PREINCUBATION
  mutagenic call: inactive; negative
Test System: AMES SALMONELLA TYPHIMURIUM, Strain/Indicator: TA97, Metabolic Activation: RAT, LIVER, S-9, AROCLOR 1254 (30%), Method: PREINCUBATION
  mutagenic call: inactive; negative
[2]
  mutagenic call: inactive; negative
[3]
  mutagenic call: inactive; negative
Test System: AMES SALMONELLA TYPHIMURIUM, Strain/Indicator: TA98, Metabolic Activation: RAT, LIVER, S-9, KC 500, Method: PREINCUBATION
  mutagenic call: active; positive
Test System: AMES SALMONELLA TYPHIMURIUM, Strain/Indicator: TA98, Metabolic Activation: RAT, LIVER, S-9, PCB, Method: PREINCUBATION
  mutagenic call: inactive; negative
[4]
  mutagenic call: inactive; negative
[5]
  mutagenic call: inactive; negative
[6]
  mutagenic call: inactive; negative
Test System: AMES SALMONELLA TYPHIMURIUM, Strain/Indicator: TA100, Metabolic Activation: RAT, LIVER, S-9, KC 500, Method: PREINCUBATION
  mutagenic call: active; positive
Test System: AMES SALMONELLA TYPHIMURIUM, Strain/Indicator: TA100, Metabolic Activation: RAT, LIVER, S-9, PCB, Method: PREINCUBATION
  mutagenic call: inactive; negative
[7]
  mutagenic call: inactive; negative
[8]
  mutagenic call: inactive; negative
[9]
  mutagenic call: inactive; negative
Test System: AMES SALMONELLA TYPHIMURIUM, Strain/Indicator: TA1535, Metabolic Activation: RAT, LIVER, S-9, KC 500, Method: PREINCUBATION
  mutagenic call: inactive; negative
Test System: AMES SALMONELLA TYPHIMURIUM, Strain/Indicator: TA1537, Metabolic Activation: HAMSTER, LIVER, S-9, AROCLOR 1254 (10%), Method: PREINCUBATION
  mutagenic call: inactive; negative
Test System: AMES SALMONELLA TYPHIMURIUM, Strain/Indicator: TA1537, Metabolic Activation: NONE, Method: PREINCUBATION
  mutagenic call: inactive; negative
Test System: AMES SALMONELLA TYPHIMURIUM, Strain/Indicator: TA1537, Metabolic Activation: RAT, LIVER, S-9, AROCLOR 1254 (10%), Method: PREINCUBATION
  mutagenic call: inactive; negative
Test System: AMES SALMONELLA TYPHIMURIUM, Strain/Indicator: TA1537, Metabolic Activation: RAT, LIVER, S-9, KC 500, Method: PREINCUBATION
  mutagenic call: inactive; negative
Test System: AMES SALMONELLA TYPHIMURIUM, Strain/Indicator: TA1538, Metabolic Activation: HAMSTER, LIVER, S-9, AROCLOR 1254 (10 OR 30%), Method: PREINCUBATION
  mutagenic call: inactive; negative
Test System: AMES SALMONELLA TYPHIMURIUM, Strain/Indicator: TA1538, Metabolic Activation: NONE, Method: PREINCUBATION
  mutagenic call: inactive; negative
Test System: AMES SALMONELLA TYPHIMURIUM, Strain/Indicator: TA1538, Metabolic Activation: RAT, LIVER, S-9, AROCLOR 1254 (10 OR 30%), Method: PREINCUBATION
  mutagenic call: inactive; negative
Test System: AMES SALMONELLA TYPHIMURIUM, Strain/Indicator: TA1538, Metabolic Activation: RAT, LIVER, S-9, KC 500, Method: PREINCUBATION
  mutagenic call: inactive; negative
Test System: Ames Salmonella typhimurium, Strain/Indicator: TA98, Metabolic Activation: None, Method: Preincubation
  mutagenic call: inactive; negative
Test System: Ames Salmonella typhimurium, Strain/Indicator: TA98, Metabolic Activation: Rat, Liver, S9, Sodium phenobarbital and 5,6-benzoflavone (10%), Method: Preincubation
  mutagenic call: inactive; negative
Test System: Ames Salmonella typhimurium, Strain/Indicator: TA100, Metabolic Activation: None, Method: Preincubation
  mutagenic call: inactive; negative
Test System: Ames Salmonella typhimurium, Strain/Indicator: TA100, Metabolic Activation: Rat, Liver, S9, Sodium phenobarbital and 5,6-benzoflavone (10%), Method: Preincubation
  mutagenic call: inactive; negative
Test System: Ames Salmonella typhimurium, Strain/Indicator: TA1535, Metabolic Activation: None, Method: Preincubation
  mutagenic call: inactive; negative
Test System: Ames Salmonella typhimurium, Strain/Indicator: TA1535, Metabolic Activation: Rat, Liver, S9, Sodium phenobarbital and 5,6-benzoflavone (10%), Method: Preincubation
  mutagenic call: inactive; negative
Test System: Ames Salmonella typhimurium, Strain/Indicator: TA1537, Metabolic Activation: None, Method: Preincubation
  mutagenic call: inactive; negative
Test System: Ames Salmonella typhimurium, Strain/Indicator: TA1537, Metabolic Activation: Rat, Liver, S9, Sodium phenobarbital and 5,6-benzoflavone (10%), Method: Preincubation
  mutagenic call: inactive; negative
Test System: E. COLI, Strain/Indicator: WP2 UVRA, Metabolic Activation: NONE, Method: PREINCUBATION
  mutagenic call: inactive; negative
Test System: E. COLI, Strain/Indicator: WP2 UVRA, Metabolic Activation: RAT, LIVER, S-9, KC 500, Method: PREINCUBATION
  mutagenic call: inactive; negative
Test System: E. coli, Strain/Indicator: WP2uvrA/pKM101, Metabolic Activation: None, Method: Preincubation
  mutagenic call: inactive; negative
Test System: E. coli, Strain/Indicator: WP2uvrA/pKM101, Metabolic Activation: Rat, Liver, S9, Sodium phenobarbital and 5,6-benzoflavone (10%), Method: Preincubation
  mutagenic call: inactive; negative

## CN(C)C(=O)Nc1cccc(C(F)(F)F)c1
End Point: IN VITRO CHROMOSOMAL ABERRATIONS, Test System: CHO-LB CELLS, Metabolic Activation: NONE
  mutagenic call: inactive; negative
End Point: IN VITRO CHROMOSOMAL ABERRATIONS, Test System: CHO-LB CELLS, Metabolic Activation: RAT, LIVER, S-9, AROCLOR 1254
  mutagenic call: inactive; negative
Test System: AMES SALMONELLA TYPHIMURIUM, Strain/Indicator: TA97, Metabolic Activation: HAMSTER, LIVER, S-9, AROCLOR 1254 (10 OR 30%), Method: PREINCUBATION
  mutagenic call: inactive; negative
[1]
  mutagenic call: inactive; negative
Test System: AMES SALMONELLA TYPHIMURIUM, Strain/Indicator: TA97, Metabolic Activation: RAT, LIVER, S-9, AROCLOR 1254 (10 OR 30%), Method: PREINCUBATION
  mutagenic call: inactive; negative
[2]
  mutagenic call: inactive; negative
Test System: AMES SALMONELLA TYPHIMURIUM, Strain/Indicator: TA98, Metabolic Activation: NONE, Method: PREINCUBATION
  mutagenic call: inactive; negative
[3]
  mutagenic call: inactive; negative
[4]
  mutagenic call: inactive; negative
[5]
  mutagenic call: inactive; negative
[6]
  mutagenic call: inactive; negative
[7]
  mutagenic call: inactive; negative
[8]
  mutagenic call: inactive; negative
[9]
  mutagenic call: inactive; negative
Test System: AMES SALMONELLA TYPHIMURIUM, Strain/Indicator: TA1535, Metabolic Activation: RAT, LIVER, S-9, Method: STANDARD PLATE
  mutagenic call: active; positive
Test System: E. COLI, Strain/Indicator: WP2 UVRA, Metabolic Activation: HAMSTER, LIVER, S-9, AROCLOR 1254, Method: STANDARD PLATE
  mutagenic call: inactive; negative
Test System: E. COLI, Strain/Indicator: WP2 UVRA, Metabolic Activation: HAMSTER, LIVER, S-9, Method: STANDARD PLATE
  mutagenic call: inactive; negative
Test System: E. COLI, Strain/Indicator: WP2 UVRA, Metabolic Activation: MOUSE, LIVER, S-9, AROCLOR 1254, Method: STANDARD PLATE
  mutagenic call: inactive; negative
Test System: E. COLI, Strain/Indicator: WP2 UVRA, Metabolic Activation: MOUSE, LIVER, S-9, Method: STANDARD PLATE
  mutagenic call: inactive; negative
Test System: E. COLI, Strain/Indicator: WP2 UVRA, Metabolic Activation: NONE, Method: STANDARD PLATE
  mutagenic call: inactive; negative
Test System: E. COLI, Strain/Indicator: WP2 UVRA, Metabolic Activation: RAT, LIVER, S-9, AROCLOR 1254, Method: STANDARD PLATE
  mutagenic call: inactive; negative
Test System: E. COLI, Strain/Indicator: WP2 UVRA, Metabolic Activation: RAT, LIVER, S-9, Method: STANDARD PLATE
  mutagenic call: inactive; negative
